# Measured values reported in ChEMBL document CHEMBL1165847, “Urotensin-II receptor modulators as potential drugs” (J Med Chem, 2010).
# Calls of active or inactive are those of the source. No cut-off for these calls is given here. Where a SMILES comes first, the peptide text is derived from it. Bridges are numbered along the chain shown (N, C = ends). [ ]: non-standard residue; d: D form. 1Nal = N[C@@H](Cc1cccc2ccccc12)C(=O)O; 2Nal = N[C@@H](Cc1ccc2ccccc2c1)C(=O)O
# Legend:
# Urotensin-2 receptor [1] = molecular target: T1, Urotensin-2 receptor (Rattus norvegicus, UniProt P49684); assay: Agonist activity at rat urotensin 2 receptor expressed in CHO cells assessed as calcium mobilization by FLIPR; assay type: functional, cell-based
# T1 sequence (P49684 whole entry): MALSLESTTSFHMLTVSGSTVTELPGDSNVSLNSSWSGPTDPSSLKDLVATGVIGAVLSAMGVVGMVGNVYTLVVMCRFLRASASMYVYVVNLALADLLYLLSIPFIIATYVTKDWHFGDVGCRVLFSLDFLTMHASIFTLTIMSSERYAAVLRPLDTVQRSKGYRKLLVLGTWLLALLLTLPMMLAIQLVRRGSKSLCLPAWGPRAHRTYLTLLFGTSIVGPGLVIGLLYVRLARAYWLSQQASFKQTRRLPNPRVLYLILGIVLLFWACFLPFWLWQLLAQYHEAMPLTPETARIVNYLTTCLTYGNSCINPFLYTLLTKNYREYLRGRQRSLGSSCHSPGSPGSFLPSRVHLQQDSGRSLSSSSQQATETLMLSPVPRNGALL
# [2] = molecular target: T2, Urotensin-2 receptor (Rattus norvegicus) (UniProt P49684); assay: Antagonist activity at rat urotensin 2 receptor expressed in CHO cells assessed as calcium mobilization at 100 nM by FLIPR; assay type: functional, cell-based
# T2 sequence (whole entry): T1 sequence (P49684 whole entry)
# Aorta = assay: Vasoconstriction activity in spontaneously […] rat thoracic aorta at 30 nM; assay type: functional
# Urotensin-2 receptor [3] = molecular target: T1, Urotensin-2 receptor; assay: Displacement of [125I]U2 from rat urotensin 2 receptor expressed in CHO cells; assay type: cell-based
# [4] = molecular target: T2, Urotensin-2 receptor (Rattus norvegicus); assay: Antagonist activity at rat urotensin 2 receptor expressed in CHO cells assessed as calcium mobilization at 300 nM by FLIPR; assay type: functional, cell-based
# [5] = molecular target: T2, Urotensin-2 receptor (Rattus norvegicus); assay: Agonist activity at rat urotensin 2 receptor expressed in CHO cells assessed as calcium mobilization at 1000 nM by FLIPR; assay type: functional, cell-based
# [6] = molecular target: T2, Urotensin-2 receptor (Rattus norvegicus); assay: Antagonist activity at rat urotensin 2 receptor expressed in CHO cells assessed as calcium mobilization at 10000 nM by FLIPR; assay type: functional, cell-based
Molecule,EC50 (Urotensin-2 receptor [1]),Ki (Urotensin-2 receptor [3]),other results
CC(C)[C@H](NC(=O)[C@@H]1CSSC[C@H](NC(=O)[C@H](CC(=O)O)NC(=O)[C@H](C)N)C(=O)N[C@@H](C)C(=O)N[C@@H](Cc2c[nH]c3ccccc23)C(=O)N[C@@H](CCCCN)C(=O)N[C@@H](Cc2ccc(O)cc2)C(=O)N1)C(=O)O (H-ADCAWKYCV-OH; disulfide 3-8),6.5 nM,,
CC(C)[C@H](NC(=O)[C@@H]1CSSC[C@H](NC(=O)[C@H](CC(=O)O)NC(=O)[C@H](C)N)C(=O)N[C@@H](Cc2ccccc2)C(=O)N[C@@H](Cc2c[nH]c3ccccc23)C(=O)N[C@@H](C)C(=O)N[C@@H](Cc2ccc(O)cc2)C(=O)N1)C(=O)O (H-ADCFWAYCV-OH; disulfide 3-8),> 1000 nM,,
COc1cc(Br)c(S(=O)(=O)Nc2ccc(C(F)(F)F)c(O[C@@H]3CCN(C)C3)c2)cc1OC,,,inhibition [2]: 97%
CC(C)[C@H](NC(=O)[C@@H]1CSSC[C@H](NC(=O)[C@H](CC(=O)O)NC(=O)[C@H](C)N)C(=O)N[C@@H](Cc2ccccc2)C(=O)N[C@@H](C)C(=O)N[C@@H](CCCCN)C(=O)N[C@@H](Cc2ccc(O)cc2)C(=O)N1)C(=O)O (H-ADCFAKYCV-OH; disulfide 3-8),> 1000 nM,,
CC(C)[C@H](NC(=O)[C@@H]1CSSC[C@H](NC(=O)[C@H](CC(=O)O)NC(=O)[C@H](C)NC(=O)[C@@H](N)[C@@H](C)O)C(=O)N[C@@H](Cc2ccccc2)C(=O)N[C@@H](Cc2c[nH]c3ccccc23)C(=O)N[C@@H](CCCCN)C(=O)N[C@@H](Cc2ccc(O)cc2)C(=O)N1)C(=O)O (H-TADCFWKYCV-OH; disulfide 4-9),0.11 nM,,
CC(=O)N[C@H]1CSSC[C@@H](C(N)=O)NC(=O)[C@H](Cc2ccc3ccccc3c2)NC(=O)[C@H](CCCCN)NC(=O)[C@H](Cc2c[nH]c3ccccc23)NC(=O)[C@H](Cc2ccccc2)NC1=O (Ac-CFWK[2Nal]C-NH2; disulfide 1-6),,,Activity (Aorta): 43%
CC(C)[C@H](NC(=O)[C@@H]1CSSC[C@H](NC(=O)[C@H](CC(=O)O)NC(=O)[C@H](C)NC(=O)[C@@H](NC(=O)CNC(=O)[C@H](C)N)[C@@H](C)O)C(=O)N[C@@H](Cc2ccccc2)C(=O)N[C@@H](Cc2c[nH]c3ccccc23)C(=O)N[C@@H](CCCCN)C(=O)N[C@@H](Cc2ccc(O)cc2)C(=O)N1)C(=O)O (H-AGTADCFWKYCV-OH; disulfide 6-11),0.17 nM,0.19 nM,Activity (Aorta): 91%
CC(C)[C@H](NC(=O)[C@@H]1CSSC[C@H](NC(=O)[C@H](CC(=O)O)NC(=O)[C@H](C)N)C(=O)N[C@@H](Cc2ccccc2)C(=O)N[C@@H](Cc2c[nH]c3ccccc23)C(=O)N[C@@H](CCCCN)C(=O)N[C@@H](Cc2ccc(O)cc2)C(=O)N1)C(=O)O (H-ADCFWKYCV-OH; disulfide 3-8),0.16 nM,,
CC(=O)N[C@H]1CSSC[C@@H](C(N)=O)NC(=O)[C@H](Cc2ccc(O)cc2)NC(=O)[C@H](CCCCN)NC(=O)[C@H](Cc2c[nH]c3ccccc23)NC(=O)[C@@H](Cc2ccccc2)NC1=O,,,Ki (Urotensin-2 receptor [3]; cho): < 10000 nM; Activity [4]: inactive
CC(C)[C@H](NC(=O)[C@@H]1CSSC[C@H](NC(=O)[C@H](CC(=O)O)NC(=O)[C@H](C)NC(=O)[C@@H](NC(=O)CNC(=O)[C@H](C)N)[C@@H](C)O)C(=O)N[C@@H](Cc2ccccc2)C(=O)N[C@@H](Cc2c[nH]c3ccccc23)C(=O)N[C@@H](CCCCN)C(=O)N[C@@H](Cc2ccc3ccccc3c2)C(=O)N1)C(=O)O (H-AGTADCFWK[2Nal]CV-OH; disulfide 6-11),0.34 nM,0.02 nM,
CC(C)[C@H](NC(=O)[C@@H]1CSSC[C@H](N)C(=O)N[C@@H](Cc2ccccc2)C(=O)N[C@@H](Cc2c[nH]c3ccccc23)C(=O)N[C@@H](CCCCN)C(=O)N[C@@H](Cc2ccc(O)cc2)C(=O)N1)C(=O)O (H-CFWKYCV-OH; disulfide 1-6),0.76 nM,,
CC(=O)N[C@H]1CSSC[C@@H](C(N)=O)NC(=O)[C@H](Cc2cccc3ccccc23)NC(=O)[C@H](CCCCN)NC(=O)[C@H](Cc2c[nH]c3ccccc23)NC(=O)[C@H](Cc2ccccc2)NC1=O (Ac-CFWK[1Nal]C-NH2; disulfide 1-6),1.5 nM,4.1 nM,
CC(=O)N[C@H]1CSSC[C@@H](C(N)=O)NC(=O)[C@@H](Cc2ccc(O)cc2)NC(=O)[C@H](CCCCN)NC(=O)[C@H](Cc2c[nH]c3ccccc23)NC(=O)[C@H](Cc2ccccc2)NC1=O,37 nM,1100 nM,
Ac-SFWKYS-NH2,< 500 nM,,Ki (Urotensin-2 receptor [3]; cho): < 10000 nM; Activity [4]: inactive; Activity [5]: 50%
NCCCC[C@@H]1NC(=O)[C@H](Cc2c[nH]c3ccccc23)NC(=O)[C@H](Cc2ccccc2)NC(=O)[C@@H](N)CSSC[C@@H](C(=O)O)NC(=O)[C@H](Cc2ccc(O)cc2)NC1=O (H-CFWKYC-OH; disulfide 1-6),1.6 nM,,
CC(=O)N[C@H]1CSSC[C@@H](C(N)=O)NC(=O)[C@H](C)NC(=O)[C@H](CCCCN)NC(=O)[C@H](Cc2c[nH]c3ccccc23)NC(=O)[C@H](Cc2ccccc2)NC1=O (Ac-CFWKAC-NH2; disulfide 1-6),,> 10000 nM,Activity (Aorta): 0%; Activity [5]: 50%
CC(C)[C@H](NC(=O)[C@@H]1CSSC[C@H](NC(=O)[C@@H](N)CC(=O)O)C(=O)N[C@@H](Cc2ccccc2)C(=O)N[C@@H](Cc2c[nH]c3ccccc23)C(=O)N[C@@H](CCCCN)C(=O)N[C@@H](Cc2ccc(O)cc2)C(=O)N1)C(=O)O (H-DCFWKYCV-OH; disulfide 2-7),0.1 nM,,
CC(C)[C@H](NC(=O)[C@@H]1CSSC[C@H](NC(=O)[C@H](C)NC(=O)[C@H](C)N)C(=O)N[C@@H](Cc2ccccc2)C(=O)N[C@@H](Cc2c[nH]c3ccccc23)C(=O)N[C@@H](CCCCN)C(=O)N[C@@H](Cc2ccc(O)cc2)C(=O)N1)C(=O)O (H-AACFWKYCV-OH; disulfide 3-8),0.6 nM,,
CC(C)[C@H](NC(=O)[C@@H]1CSSC[C@H](NC(=O)[C@H](CC(=O)O)NC(=O)[C@H](C)NC(=O)[C@@H](NC(=O)CN)[C@@H](C)O)C(=O)N[C@@H](Cc2ccccc2)C(=O)N[C@@H](Cc2c[nH]c3ccccc23)C(=O)N[C@@H](CCCCN)C(=O)N[C@@H](Cc2ccc(O)cc2)C(=O)N1)C(=O)O (H-GTADCFWKYCV-OH; disulfide 5-10),0.29 nM,,
CC(=O)N[C@H]1CSSC[C@@H](C(N)=O)NC(=O)[C@H](Cc2ccc(O)cc2)NC(=O)[C@H](CCCCN)NC(=O)[C@H](Cc2c[nH]c3ccccc23)NC(=O)[C@H](Cc2ccccc2)NC1=O,1.6 nM,15 nM,
CC(=O)N[C@@H](Cc1c[nH]c2ccccc12)C(=O)N[C@@H](CCCCN)C(=O)N[C@@H](Cc1ccc(O)cc1)C(N)=O (Ac-Trp-Lys-Tyr-NH2),< 500 nM,,Ki (Urotensin-2 receptor [3]; cho): < 10000 nM
CC(=O)N[C@H]1CSSC[C@@H](C(N)=O)NC(=O)[C@H](Cc2ccccc2)NC(=O)[C@H](CCCCN)NC(=O)[C@H](Cc2c[nH]c3ccccc23)NC(=O)[C@H](Cc2ccccc2)NC1=O (Ac-CFWKFC-NH2; disulfide 1-6),2.1 nM,17 nM,Activity (Aorta): 11%
CC(=O)N[C@H]1CSSC[C@@H](C(N)=O)NC(=O)[C@H](Cc2ccc(O)cc2)NC(=O)[C@H](CCCCN)NC(=O)[C@H](Cc2ccc3ccccc3c2)NC(=O)[C@H](Cc2ccccc2)NC1=O (Ac-CF[2Nal]KYC-NH2; disulfide 1-6),31 nM,200 nM,
CC(C)[C@H](NC(=O)[C@@H]1CSSC[C@H](NC(=O)[C@H](CC(N)=O)NC(=O)[C@H](C)N)C(=O)N[C@@H](Cc2ccccc2)C(=O)N[C@@H](Cc2c[nH]c3ccccc23)C(=O)N[C@@H](C)C(=O)N[C@@H](Cc2ccc(O)cc2)C(=O)N1)C(=O)O (H-ANCFWAYCV-OH; disulfide 3-8),,,Activity [6]: inactive
CC(C)[C@H](NC(=O)[C@@H]1CSSC[C@H](NC(=O)[C@H](CC(N)=O)NC(=O)[C@H](C)N)C(=O)N[C@@H](Cc2ccccc2)C(=O)N[C@@H](Cc2c[nH]c3ccccc23)C(=O)N[C@@H](CCCCN)C(=O)N[C@@H](C)C(=O)N1)C(=O)O (H-ANCFWKACV-OH; disulfide 3-8),,,Activity [6]: inactive; Activity [5]: 67%
CC(=O)N[C@H]1CSSC[C@@H](C(N)=O)NC(=O)[C@H](Cc2ccc(O)cc2)NC(=O)[C@H](CCCCN)NC(=O)[C@@H](Cc2c[nH]c3ccccc23)NC(=O)[C@H](Cc2ccccc2)NC1=O,26 nM,610 nM,
CC(=O)N[C@H]1CSSC[C@@H](C(N)=O)NC(=O)[C@H](Cc2ccc(O)cc2)NC(=O)[C@@H](CCCCN)NC(=O)[C@H](Cc2c[nH]c3ccccc23)NC(=O)[C@H](Cc2ccccc2)NC1=O,,,Ki (Urotensin-2 receptor [3]; cho): < 10000 nM; Activity [4]: inactive
C[C@H](N)C(=O)N[C@@H](CC(=O)O)C(=O)N[C@H]1CSSC[C@@H](C(=O)N[C@@H](C)C(=O)O)NC(=O)[C@H](Cc2ccc(O)cc2)NC(=O)[C@H](CCCCN)NC(=O)[C@H](Cc2c[nH]c3ccccc23)NC(=O)[C@H](Cc2ccccc2)NC1=O (H-ADCFWKYCA-OH; disulfide 3-8),0.4 nM,,
CC(C)[C@H](NC(=O)[C@@H]1CSSC[C@H](NC(=O)[C@H](CC(N)=O)NC(=O)[C@H](C)N)C(=O)N[C@@H](Cc2ccccc2)C(=O)N[C@@H](C)C(=O)N[C@@H](CCCCN)C(=O)N[C@@H](Cc2ccc(O)cc2)C(=O)N1)C(=O)O (H-ANCFAKYCV-OH; disulfide 3-8),,,Activity [6]: inactive
